{"source": "patent US20080112954A1", "about": "“Method for treating chronic pain” (Parker College of Chiropractic, priority 2006, published 2008)", "key": {"naïve rats": {"system": "naïve rats", "experiment": "Thermal sensitivity of naïve rats after intrathecal EphB receptor activators", "type": "in vivo, rat", "conditions": "prior injection of 20 μg"}, "[1]": {"system": "synapses between C-fibers and DH neurons", "experiment": "LTP of C-fiber evoked field potentials in spinal dorsal horn in vivo", "set-up": "species or system rat", "conditions": "for LTP produced by 4 high-frequency trains of nerve shock: naïve animals", "protocol": "Under anesthesia, a cannula was inserted into the trachea to allow artificial ventilation and another cannula containing heparin (0.03%) saline was inserted into the left carotid artery to monitor the blood pressure. The rat was placed in a stereotaxic frame, then was paralyzed by an intravenous injection of pancuronium bromide (4 mg/kg) and artificially ventilated with air at a tidal volume of 15 ml/kg. Adequate anesthesia was confirmed intermittently during neuromuscular blockade in terms of the following two criteria: (1) the pupils were constricted; (2) the blood pressure remained stable during noxious stimulation. Core body temperature was monitored through a thermister probe inserted into the rectum and maintained at 37.5±0.5° C. by means of a feedback-controlled heating pad under the ventral surface of the abdomen. In each experiment phosphate-buffered saline (PBS) was intermittently administered via a jugular vein cannula to maintain hydroelectrolyte balance. A laminectomy was performed to expose the lumbar spinal cord. The dura mater was then removed the exposed cord was immediately covered with warm agar (2% in saline). After the agar hardened, a small hole was made above the recording site for application of drug or vehicle. At the end of each experiment, the animals were killed by an overdose of intravenous pentobarbital (200 mg/kg).\nLong-term potentiation (LTP) tests were performed on naïve rats. The protocol for the electrophysiological recordings of C-fiber evoked field potentials was similar to that described previously (Liu and Sandkuhler, 1998). The recordings were made at depths of 200-500 μm from the surface of the spinal cord between L4-L5 with glass capillary microelectrodes (DC resistances 3-5 MΩ filled with 2 M NaCl). The sciatic nerve was stimulated by a bipolar platinum hook electrode. […] Examples of the C-fiber-evoked field potentials given in each figure were recorded before (a) and after (b) tetanic stimulation (indicated by the arrow therein) or ephrinB1-Fc. […]"}}}
{"smiles": "C[C@]12N[C@H](Cc3ccccc31)c1ccccc12", "note": "[MK-801, dizocilpine]", "values": [{"measurement": "thermal hypersensitivity induced by injection of ephrinB1-Fc or ephrinB2-Fc", "setting": "naïve rats", "value": "prevented"}, {"measurement": "LTP produced by 4 high-frequency trains of nerve shock", "setting": "[1]; post-treatment", "value": "not interrupted"}, {"measurement": "LTP induced by the combination of ephrinB1-Fc and 2 tetanic trains", "setting": "[1]; pre-treatment, n=5", "value": "blocked"}, {"measurement": "LTP produced by 4 high-frequency trains of nerve shock", "setting": "[1]; topical pre-treatment", "value": "blocked"}]}
